Measured values reported in patent US11977075B2, “Method of predicting personalized response to cancer treatment with immune checkpoint inhibitors, method of treating cancer, and kit therefor” (Rappaport Family Institute for Research in the Medical …, priority 2017, dated 2024).

Experiments:
cancer patients = settings: pooled data from clinical studies; cited from earlier work
[1] = system: EMT6 murine breast carcinoma; test: EMT6 primary breast tumor model, ICI combined with SB-3CT; format: in vivo, BALB/c mice; settings: combination with either anti-PD-1 or anti-PD-L1 vs anti-PD-1 or anti-PD-L1 monotherapy
Experimental: Control mice are injected with IgG antibody and vehicle (10% DMSO in normal saline). Mice receiving either anti-PD-1 or anti-PD-L1 monotherapies are also injected with vehicle (10% DMSO in normal saline). Mice receiving SB3-CT monotherapy are also injected with IgG control antibodies. Tumor growth and mouse survival are monitored. At endpoint (when tumors reach a size of ˜1500 mm^3), mice are sacrificed.

ipilimumab
duration of clinical response (cancer patients): around 3 years | duration of clinical response, can last up to (cancer patients): up to 10 years | subset of patients in which the therapeutic effect is observed (cancer patients): ~20%

O=S(=O)(CC1CS1)c1ccc(Oc2ccccc2)cc1 (centres unmarked) [SB-3CT, 2-(((4-phenoxyphenyl)sulfonyl)methyl)thiirane]
increasing survival [1]: more effective | reducing tumor size [1]: more effective
